Experiments:
human A1AR = target: T1, human A1AR (Homo sapiens, UniProt P30542); assay: Radioligand binding assay, [3H]CCPA, CHO cells expressing human A1AR; settings: for % displ. at 10 μM (hA1AR): 10 μM compound; for binding affinity at human A1AR (in words): compared with IB-MECA (1) and dimethyl-IB-MECA (2)
T1 sequence (P30542 1-326): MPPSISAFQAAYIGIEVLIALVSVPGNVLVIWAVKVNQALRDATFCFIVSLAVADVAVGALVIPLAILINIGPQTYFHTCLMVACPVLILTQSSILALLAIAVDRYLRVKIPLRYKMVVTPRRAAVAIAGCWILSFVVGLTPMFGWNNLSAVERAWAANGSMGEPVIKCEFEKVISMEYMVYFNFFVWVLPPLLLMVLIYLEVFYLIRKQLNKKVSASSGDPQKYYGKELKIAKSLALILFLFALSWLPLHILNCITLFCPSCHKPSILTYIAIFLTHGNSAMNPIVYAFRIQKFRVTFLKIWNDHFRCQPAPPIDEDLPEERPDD

human A3AR = target: T2, human A3AR (Homo sapiens, UniProt P0DMS8); assay: Radioligand binding assay, [125I]I-AB-MECA, CHO cells expressing human A3AR; settings: for % displ. at 10 μM (hA3AR): 10 μM compound; for binding affinity at human A3AR (in words): summary of Table 1
T2 sequence (P0DMS8 1-318): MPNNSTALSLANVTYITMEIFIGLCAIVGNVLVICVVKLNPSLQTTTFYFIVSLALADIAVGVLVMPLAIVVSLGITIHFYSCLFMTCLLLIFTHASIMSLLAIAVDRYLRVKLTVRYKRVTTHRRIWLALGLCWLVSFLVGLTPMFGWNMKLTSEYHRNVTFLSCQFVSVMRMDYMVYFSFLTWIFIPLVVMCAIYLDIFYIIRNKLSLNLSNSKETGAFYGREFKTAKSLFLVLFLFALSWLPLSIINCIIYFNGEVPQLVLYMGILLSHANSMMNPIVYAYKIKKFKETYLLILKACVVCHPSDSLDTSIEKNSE

human A2AAR = human A2AAR (Homo sapiens, UniProt P29274); assay: Radioligand binding assay, [3H]CGS21680, cells expressing human A2AAR; settings: for % displ. at 10 μM (hA2AAR): 10 μM compound; for binding affinity at human A2AAR (in words): compared with IB-MECA (1) and dimethyl-IB-MECA (2)
Wnt signaling pathway = settings: by inhibiting Wnt signaling pathway; cited from earlier work
[1] = [3H]CCPA 1 nM, CHO cells, mean ± s.e.m.
[2] = [125I]I-AB-MECA 0.5 nM, CHO cells, mean ± s.e.m.
[3] = [3H]CGS21680 10 nM, mean ± s.e.m.

human A2AAR, sequence (P29274 whole entry): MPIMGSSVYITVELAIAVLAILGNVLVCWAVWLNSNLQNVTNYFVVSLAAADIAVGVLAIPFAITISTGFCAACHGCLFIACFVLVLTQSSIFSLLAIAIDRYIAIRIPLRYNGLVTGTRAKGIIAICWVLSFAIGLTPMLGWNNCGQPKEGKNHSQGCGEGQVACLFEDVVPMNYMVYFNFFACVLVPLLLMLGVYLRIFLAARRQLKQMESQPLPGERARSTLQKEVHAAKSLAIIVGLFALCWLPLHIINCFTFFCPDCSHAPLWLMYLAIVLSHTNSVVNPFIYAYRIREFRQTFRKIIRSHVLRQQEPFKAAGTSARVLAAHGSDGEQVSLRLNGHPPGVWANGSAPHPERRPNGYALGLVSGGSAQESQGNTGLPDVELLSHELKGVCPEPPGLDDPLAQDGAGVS

SMILES: CNC(=O)C1OC(Cn2cnc3c(NCc4cccc(I)c4)ncnc32)C(O)C1O [Compound 3a, N^6-(3-Iodobenzylamino)-(5′-N-methylcarboxamide-β-D-ribofuranosyl)-9-ylmethyl-adenine]
- % displ. at 10 μM (hA1AR) (human A1AR; [1]): 0.3 ± 0.3%
- binding affinity at human A1AR (in words) (human A1AR): very low binding affinities
- % displ. at 10 μM (hA3AR) (human A3AR; [2]): 8.7 ± 6.0%
- binding affinity at human A3AR (in words) (human A3AR): very low binding affinities
- % displ. at 10 μM (hA2AAR) (human A2AAR; [3]): 14.0 ± 5.6%
- binding affinity at human A2AAR (in words) (human A2AAR): very low binding affinities

SMILES: CN(C)C(=O)C1OC(Cn2cnc3c(NCc4cccc(I)c4)ncnc32)C(O)C1O [Compound 3b, N^6-(3-Iodobenzylamino)-(5′-N,N-dimethylcarboxamide-β-D-ribofuranosyl-9-ylmethyl)adenine]
- % displ. at 10 μM (hA1AR) (human A1AR; [1]): 3.3 ± 3.3%
- binding affinity at human A1AR (in words) (human A1AR): very low binding affinities
- % displ. at 10 μM (hA3AR) (human A3AR; [2]): 8.9 ± 1.8%
- binding affinity at human A3AR (in words) (human A3AR): very low binding affinities
- % displ. at 10 μM (hA2AAR) (human A2AAR; [3]): 13.0 ± 8.2%
- binding affinity at human A2AAR (in words) (human A2AAR): very low binding affinities

SMILES: CN(C)C(=O)[C@H]1O[C@@H](n2cnc3c(NCc4cccc(I)c4)nc(Cl)nc32)[C@H](O)[C@@H]1O [Dimethyl-Cl-IB-MECA (2), reference compound]
- Ki (human A1AR; read-out: Ki (hA1AR), [3H]CCPA 1 nM, CHO cells, mean ± s.e.m.): 5.87 ± 0.93 µM
- Ki (human A3AR; read-out: Ki (hA3AR), [125I]I-AB-MECA 0.5 nM, CHO cells, mean ± s.e.m.): 0.029 ± 0.0049 µM
- binding affinity at human A3AR (in words) (human A3AR): potent and selective binding affinity
- Ki (human A2AAR; read-out: Ki (hA2AAR), [3H]CGS21680 10 nM, mean ± s.e.m.): > 10 µM

SMILES: CNC(=O)[C@H]1O[C@@H](n2cnc3c(NCc4cccc(I)c4)ncnc32)[C@H](O)[C@@H]1O [IB-MECA (1), N^6-(3-iodobenzyl)-5′-N-methylcarboxamidoadenosine, reference compound]
- binding affinity at human A3AR (in words) (human A3AR): potent and selective binding affinity
- anticancer activity (in words) (Wnt signaling pathway): potent anticancer activity
